According to patent US6352966B1, “Cleansing bars” (Albemarle Corporation, priority 2000, dated 2002):

What was measured:
Format in all cases: physicochemical
[1] = Surface tension in ionic buffer solution; conditions: 0.02 normal aqueous potassium nitrate solution at 25° C.
Description: Also shown in Table 1 are the corresponding values for the partially neutralized monosodium salts of the corresponding alk(en)yl succinic acids.

[2] = Reflectance of cleansing bars; conditions: bar; the higher the reflectance the whiter the bar
Method: (§1) The desirable properties of cleansing bars formed from fully neutralized sodium salts of various alkenyl succinic acids of this invention were determined in a further series of comparative tests. In these tests both the reflectance and the bar hardness were determined. In addition to testing bars of five different fully neutralized succinate salts of this invention, the same properties were measured on four fully compounded commercial soap bars from different well-known soap manufacturers. As can be appreciated, the higher the reflectance the whiter the bar, and the higher the hardness, the more desirable is the bar. In Table 2, the five fully neutralized alkenyl succinic acids are identified in terms of the number of carbon atoms in the alkenyl group. Thus, for example, C6 SAS represents the fully neutralized disodium salt of n-hexenyl succinic acid. As regards reflectance, Commercial Bar B is pink in color, and Commercial Bar C is a coral-orange in color. The other two commercial bars are white.

[3] = Bar hardness of cleansing bars; conditions: the higher the hardness, the more desirable
Method: as §1

Row | surface tension [1] [millinewtons per meter] | Molecule | Reflectance [2] | Bar Hardness [3]
1 | 26.64 | CCCCCCCCC(CC(=O)O)C(=O)[O-].[Na+] (stereo not drawn) [Monosodium n-octylsuccinate, reference compound] | – | –
2 | 26.32 | CCCCCCCCCCC(CC(=O)O)C(=O)[O-].[Na+] (stereo not drawn) [Monosodium n-decylsuccinate, reference compound] | – | –
3 | 26 | CCCCCCCCCCC(CC(=O)[O-])C(=O)[O-].[Na+].[Na+] (stereo not drawn) [Disodium n-decylsuccinate] | – | –
4 | 26 | Disodium n-tetradecenylsuccinate | 74 | 144
5 | 26 | CCCCCCCCC(CC(=O)[O-])C(=O)[O-].[Na+].[Na+] (stereo not drawn) [Disodium n-octylsuccinate] | – | –
6 | 26 | Monosodium n-tetradecenylsuccinate [reference compound] | – | –

Row | Molecule | surface tension [1] [millinewtons per meter] | Reflectance [2] | Bar Hardness [3]
7 | Disodium n-dodecenylsuccinate | 25.8 | 87 | 132
8 | Monosodium n-dodecenylsuccinate [reference compound] | 26.32 | – | –
